From PMC10913048, “Snapshots of the Reaction Coordinate of a Thermophilic 2′-Deoxyribonucleoside/ribonucleoside Transferase” (ACS Catalysis, 2024)
Values belong to the molecule of their own block, whether it stands above or below them.

Assays:
[1] = biological target: T1, CtNDT (2′-deoxyribonucleoside/ribonucleoside transferase, dNDT) (Chroococcidiopsis thermalis, UniProt K9TVX3); assay: stopped-flow fluorescence ([…]′-deoxyribosylation […] s^–[…]); HPLC steady-state kinetics (kcat/KM); format: binding
T1 construct: gene Chro_1188
T1 sequence (K9TVX3 1-155): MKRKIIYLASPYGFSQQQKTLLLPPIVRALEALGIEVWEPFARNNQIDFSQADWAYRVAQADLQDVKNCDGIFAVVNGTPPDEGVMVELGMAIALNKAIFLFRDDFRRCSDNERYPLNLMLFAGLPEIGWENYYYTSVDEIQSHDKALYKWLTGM

[2] = biological target: T2, CtNDT (2′-deoxyribonucleoside/ribonucleoside transferase, dNDT) (Chroococcidiopsis thermalis, UniProt K9TVX3, E88A); assay: stopped-flow tryptophan fluorescence; kon […] ^–[…] s^–[…], koff […] s^–[…]; format: binding; settings: read-out: stopped-flow tryptophan fluorescence; kon 0.76 μM^-1 s^-1, koff 39.3 s^-1
T2 construct: gene Chro_1188

[3] = biological target: T1, CtNDT (2′-deoxyribonucleoside/ribonucleoside transferase, dNDT); assay: HPLC steady-state transglycosylation kinetics (kcat); format: biochemical
[4] = biological target: T1, CtNDT (2′-deoxyribonucleoside/ribonucleoside transferase, dNDT); assay: ITC; co-crystal structure; format: binding
[5] = biological target: T1, CtNDT (2′-deoxyribonucleoside/ribonucleoside transferase, dNDT); assay: crystal structure of the covalent 2-difluoro-2-deoxyribosyl enzyme after cocrystallization; format: binding
[6] = biological target: T3, CtNDT (2′-deoxyribonucleoside/ribonucleoside transferase, dNDT) (Chroococcidiopsis thermalis, UniProt K9TVX3, D62N); assay: co-crystal structure; format: binding
T3 construct: gene Chro_1188

[7] = biological target: T1, CtNDT (2′-deoxyribonucleoside/ribonucleoside transferase, dNDT); assay: ITC; stopped-flow fluorescence; format: binding
[8] = biological target: Chroococcidiopsis thermalis nucleoside 2'-deoxyribosyltransferase (CtNDT), wild type (Chroococcidiopsis thermalis PCC 7203) (UniProt K9TVX3); assay: SEC; size exclusion of purified CtNDT in solution (Figure S1); conditions not shown
[9] = substrate: Nc1ncnc2c1ncn2[C@@H]1O[C@H](CO)[C@@H](O)[C@H]1O; assay: crystal structure of ribosylated enzyme after cocrystallization; HPLC steady-state kinetics (KM); format: biochemical, Chroococcidiopsis thermalis; settings: ribosyl covalent on catalytic glutamate E88; D62 near […]′-OH and […]′-OH
From the text: crystal structure of ribosylated enzyme after cocrystallization; HPLC steady-state kinetics (KM) on CtNDT (2′-deoxyribonucleoside/ribonucleoside transferase, dNDT) | determined the structure of a ribosylated enzyme intermediate by cocrystallization of wild-type CtNDT in the presence of Ado

Molecule: Nc1ncnc2c1ncn2[C@H]1C[C@H](O)[C@@H](CO)O1 [2′-deoxyadenosine]
- stopped-flow fluorescence (2′-deoxyribosylation 532 s^-1); HPLC steady-state kin [1]: 50.5 ± 12.2 mM^–1 s^–1
- koff [2]: 39.3 ± 0.7 s⁻¹

- HPLC steady-state transglycosylation kinetics (kcat) [3]: 6.9 ± 0.7 s^–1
Molecule: Nc1nc2c(ncn2[C@H]2C[C@H](O)[C@@H](CO)O2)c(=O)[nH]1 [2′-deoxyguanosine]

Molecule: O=c1[nH]cnc2c(CN3C[C@H](CO)[C@@H](O)C3)c[nH]c12 [DADme–immucillin-H]
- Kd [4]: 0.009 ± 0.005 µM

Molecule: Nc1ccn([C@@H]2O[C@H](CO)[C@@H](O)C2(F)F)c(=O)n1 [Gemcitabine]
- crystal structure of the covalent 2-difluoro-2-deoxyribosyl enzyme after cocryst [5]: structure of a 2-difluoro-2-deoxy-ribosylated CtNDT after cocrystallization with Gemcitabine

Molecule: O=c1[nH]cnc2c([C@@H]3N[C@H](CO)[C@@H](O)[C@H]3O)c[nH]c12 [immucillin-H]
- co-crystal structure [6]: (b) CtNDTD62N bound to immucillin-H
- Kd [7]: 78.2 ± 6.6 µM

- stoichiometry N [8]: 4
Molecule: Chroococcidiopsis thermalis nucleoside 2'-deoxyribosyltransferase (CtNDT), wild type (from UniProt K9TVX3 1-155) (enzyme)

B1: CtNDT (2′-deoxyribonucleoside/ribonucleoside transferase, dNDT) (Chroococcidiopsis thermalis PCC 7203) (protein)
chain: MKRKIIYLASPYGFSQQQKTLLLPPIVRALEALGIEVWEPFARNNQIDFSQADWAYRVAQADLQDVKNCDGIFAVVNGTPPDEGVMVELGMAIALNKAIFLFRDDFRRCSDNERYPLNLMLFAGLPEIGWENYYYTSVDEIQSHDKALYKWLTGM
- Km [9]: 250 ± 50 µM
